These results are taken from ChEMBL document CHEMBL4765309, “New deferiprone derivatives as multi-functional cholinesterase inhibitors: design, synthesis and in vitro evaluation” (Eur J Med Chem, 2020).

pKi: −log10 of the molar value. The source made the active and inactive calls. The rule behind the calls is not given here. Bounds are passed on as bounds.

Data set [1] is described as follows: Metal chelating activity assessed as compound-Fe3+ complex formation at 2 mM in presence of FeCl3.6H2O by UV-vis spectrophotometric titration analysis.
For data set [2], the target named is Cholinesterase (Equus caballus) (UniProt P81908). Kind of data set: Mixed type inhibition of equine BChE using varying level of acetylthiocholine as substrate by Dixon plot analysis.
Data set [3] concerns the target Cholinesterase (Equus caballus, UniProt P81908). Kind of data set: Inhibition of equine BChE assessed as inhibition constant using acetylthiocholine as substrate measured for 0.5 to 1.5 mins by Ellman's method. (Ellman's reagent forms a yellow product with free thiols.)
The nature of data set [4]: Metal chelating activity assessed as compound-Fe3+ complex formation by measuring mole fraction that causes maximum variation in absorbance in presence of FeCl3.6H2O by Job's plot analysis.
Data set [5] is described as follows: Metal chelating activity assessed as compound-Cu2+ complex formation at 2 mM in presence of CuSO4.5H2O by UV-vis spectrophotometric titration analysis.
A short description of data set [6]: Cytotoxicity against human U-87 MG cells assessed as cell viability at 10 uM incubated for 24 hrs by MTT assay. It counts as cell-based, U-87MG ATCC. To be noted: read-out: Activity. For orientation: Tetrazolium assays rely on reduction of a dye to a coloured formazan, in cell work by metabolically active cells.
Data set [7] can be described thus: Metal chelating activity assessed as compound-Zn2+ complex formation at 2 mM in presence of Zn(NO3)2.6H2O by UV-vis spectrophotometric titration analysis.
Data set [8] is described as follows: Metal chelating activity assessed as compound-Cu2+ complex formation by measuring mole fraction that causes maximum variation in absorbance in presence of CuSO4.5H2O by Job's plot analysis.
For data set [9], the target named is Acetylcholinesterase (Electrophorus electricus, UniProt O42275). As to the kind of experiment: Inhibition of electric eel AChE assessed as inhibition constant using acetylthiocholine as substrate measured for 0.5 to 1.5 mins by Ellman's method.
Data set [10] is described as follows: Metal chelating activity assessed as compound-Fe3+ complex formation at 1.7 mM in presence of FeCl3.6H2O by UV-vis spectrophotometric titration analysis.

Sequence of Acetylcholinesterase (O42275 whole entry): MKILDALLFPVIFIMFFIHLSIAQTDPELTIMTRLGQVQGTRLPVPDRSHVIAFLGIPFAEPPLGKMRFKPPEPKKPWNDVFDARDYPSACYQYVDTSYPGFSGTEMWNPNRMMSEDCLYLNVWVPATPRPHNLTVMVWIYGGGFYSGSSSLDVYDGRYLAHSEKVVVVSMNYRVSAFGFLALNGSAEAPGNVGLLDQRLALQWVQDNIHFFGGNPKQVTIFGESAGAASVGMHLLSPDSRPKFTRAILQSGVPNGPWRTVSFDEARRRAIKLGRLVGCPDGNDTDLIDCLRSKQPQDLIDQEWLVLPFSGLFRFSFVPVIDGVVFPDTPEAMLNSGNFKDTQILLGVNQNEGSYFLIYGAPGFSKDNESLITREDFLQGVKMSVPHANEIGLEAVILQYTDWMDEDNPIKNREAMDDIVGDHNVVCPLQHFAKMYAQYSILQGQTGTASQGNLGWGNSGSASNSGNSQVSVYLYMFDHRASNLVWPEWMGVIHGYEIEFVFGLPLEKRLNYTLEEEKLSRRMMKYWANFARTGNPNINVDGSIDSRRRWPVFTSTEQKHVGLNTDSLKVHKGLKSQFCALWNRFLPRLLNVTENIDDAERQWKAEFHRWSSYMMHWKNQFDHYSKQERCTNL
Sequence of Cholinesterase (P81908 whole entry): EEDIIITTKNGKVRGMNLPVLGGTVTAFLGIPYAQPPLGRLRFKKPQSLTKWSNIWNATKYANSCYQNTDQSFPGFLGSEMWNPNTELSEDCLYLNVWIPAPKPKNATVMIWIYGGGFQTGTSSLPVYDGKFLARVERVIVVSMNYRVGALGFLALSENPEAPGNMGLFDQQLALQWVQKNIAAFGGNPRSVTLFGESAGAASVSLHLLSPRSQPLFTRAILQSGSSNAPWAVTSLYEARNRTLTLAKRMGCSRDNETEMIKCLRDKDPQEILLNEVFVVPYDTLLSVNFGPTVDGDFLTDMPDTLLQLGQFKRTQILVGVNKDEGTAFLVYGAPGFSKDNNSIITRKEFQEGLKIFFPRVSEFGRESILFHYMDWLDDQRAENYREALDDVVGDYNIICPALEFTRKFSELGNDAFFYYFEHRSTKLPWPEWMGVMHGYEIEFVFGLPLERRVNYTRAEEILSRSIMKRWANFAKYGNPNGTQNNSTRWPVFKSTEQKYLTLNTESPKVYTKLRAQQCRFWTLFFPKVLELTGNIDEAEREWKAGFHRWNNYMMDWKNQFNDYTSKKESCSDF
Sequence of Cholinesterase (Equus caballus) (P81908 whole entry): as above

As to `Cc1c(OCc2ccccc2)c(=O)ccn1CCCCCCNc1ccnc(NCc2ccccc2)n1`, the outcome in data set [1] and in data set [5] was Active. In addition, the inhibition entry in data set [2] was “Active”. Besides, the pKi in [3] is 6.59. Also, the Activity (mole fraction) in [4] was 0.67. Also, the viability at 24 h, 10 µM in data set [6] was above 75%.
In the case of `Cc1c(OCc2ccccc2)c(=O)ccn1CCCCCCNc1nccc(Cl)n1`, the result in [1] was Active. For the same compound, in data set [2], the inhibition result was “Active”. The pKi in data set [3] is 5.97. In data set [6], the viability at 24 h, 10 µM was above 75%.
Regarding `Cc1c(OCc2ccccc2)c(=O)ccn1CCCCNCc1ccccc1`, in data set [2], the inhibition result was “Active”. The pKi in data set [3] was 6.35. The viability at 24 h, 10 µM in data set [6] was above 75%.
As for `Cc1c(OCc2ccccc2)c(=O)ccn1CCCCCCNc1ccccn1`, the result in data set [1] was Active. Also, the inhibition entry in [2] is “Active”. Moreover, the pKi in data set [3] is 6.74. Further, in data set [4], the Activity (mole fraction) came to 0.7. The viability at 24 h, 10 µM in [6] was above 75%.
For `Cc1c(O)c(=O)ccn1CCCCCCNc1ccnc(NCc2ccccc2)n1`, the inhibition entry in data set [2] is “Active”. Further, in [3], the pKi is 6.04. Further, the figures for the Activity (mole fraction) in data set [4] and in [8] were 0.5 and 0.64, respectively. For the same compound, the result in data set [7] was Active. Also, the viability at 24 h, 10 µM in data set [6] is above 75%.
For the compound `Cc1c(O)c(=O)ccn1CCCCCCNCc1ccccc1`, the pKi in [9] is 5.86. In addition, the result in data set [1] and in data set [5] was Active. For the same compound, the Activity (mole fraction) turned out to be 0.53 in data set [4] and 0.37 in data set [8]. Moreover, the outcome in data set [7] was inactive. Also, the viability at 24 h, 10 µM in data set [6] was above 75%.
On to `COc1ccccc1CNCCCCCCn1ccc(=O)c(OCc2ccccc2)c1C`, for which the pKi was 5.55 in data set [9] and 6.04 in data set [3]. For the same compound, the inhibition entry in [2] is “Active”. Further, the viability at 24 h, 10 µM in data set [6] is above 75%.
In the case of `COc1ccccc1CNCCCCCCn1ccc(=O)c(O)c1C`, in [9], the pKi was 5.87. Besides, in data set [6], the viability at 24 h, 10 µM was above 75%.
As to `Cc1c(OCc2ccccc2)c(=O)ccn1CCCCCCNCc1ccccc1`, the pKi was 6.10 in data set [9] and 5.63 in [3]. Moreover, in data set [2], the inhibition result was “Active”. Moreover, the Activity (mole fraction) in [4] is 0.52. For the same compound, the result in data set [7] was inactive. The outcome in data set [10] was Active. The viability at 24 h, 10 µM in [6] was above 75%.

What is called pKi is the negative decadic logarithm of the Ki, by convention in mol/L.
